20 molecules from BindingDB's records for doi:10.7270/Q2VX0F3D (Burnham Center For Chemical Genomics, 2012) can be followed below.

This test has as its target T1, Corticotropin-releasing factor-binding protein (Homo sapiens, UniProt P24387).
T1 sequence (P24387 whole entry): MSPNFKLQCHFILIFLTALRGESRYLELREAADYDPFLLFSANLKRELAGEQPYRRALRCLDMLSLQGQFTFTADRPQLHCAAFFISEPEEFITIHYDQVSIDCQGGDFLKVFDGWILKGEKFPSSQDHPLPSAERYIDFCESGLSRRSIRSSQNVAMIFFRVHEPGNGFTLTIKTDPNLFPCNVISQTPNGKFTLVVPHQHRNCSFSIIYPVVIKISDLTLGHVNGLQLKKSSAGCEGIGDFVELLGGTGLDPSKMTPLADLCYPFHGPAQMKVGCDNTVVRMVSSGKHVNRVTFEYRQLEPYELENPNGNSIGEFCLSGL
Nature of the test: activators of CRF receptor 2 with binding protein – uHTS hits, confirmation (AID 602473).

Molecules are shown by their SMILES.

What is called EC50 is the concentration giving half of the maximal effect. Low readings indicate higher potency in that assay, high ones lower potency in that assay. For `Cc1ccc(S(=O)(=O)N(CC(=O)NNC2=c3ccccc3=NC2=O)c2ccc(C)c(C)c2)cc1` [SMR000207608], the EC50 was over 53 µM. The value for `Cc1ccc(CSC(=Nc2ccc(F)cc2)C(C#N)C#N)cc1` [SMR000217751] was over 53 µM; that for `Cc1nn(-c2ccccc2)c(N2CCCC2)c1CN=Nc1ccc(S(N)(=O)=O)cc1[N+](=O)[O-]` [SMR000243538] was over 53 µM; that for `COc1ccc(C(=O)C2C(=O)C(=O)N(CCN(C)C)C2c2cccnc2)cc1C` (stereo not given) [SMR000287983] was over 53 µM.

The molecule `COc1ccc(C2c3c(n(C)c(=O)n(C)c3=O)N=C3CC(C)(C)CC(=O)C32)cc1OC` (stereo not given) [SMR000291470] came in with an EC50 of over 53 µM. The value for `O=C1C=Cc2cc(=C3C=CCC=N3)c(=O)oc2=C1CN1CCN(CCO)CC1` [SMR000298878] was 6.05 µM; that for `O=c1nncc(N=NC=CCc2ccccc2)[nH]1` [SMR000413415] was over 53 µM. Turning to `Nc1ccccc1Sc1cc(O)n(-c2ccc3c(c2)OCO3)c1O` [SMR000459840], the EC50 is over 53 µM. The same measure for `CC1=NC(=O)NC(c2cccc3ccccc23)C1C(=O)OC(C)(C)C` (stereo not given) [SMR000543036]: over 53 µM. The molecule `COc1ccc(Cn2cc(O)n(-c3cccc(Cl)c3)c2=S)cc1OC` [SMR000564410] returned an EC50 of over 53 µM. `Cc1cc(C)cc(NC(=O)c2ccc(-n3c(O)c4c(c3O)CCCC4)cc2)c1` [SMR000664971] had an EC50 of over 53 µM. The same measure for `COc1cccc(C2C(C(=O)c3ccc(C)o3)C(=O)C(=O)N2CCN2CCOCC2)c1OC` (stereo not given) [SMR000665042]: over 53 µM. Turning to `Nc1ccc2c(c1)C(N=O)c1ccccc1-2` (stereo not given) [SMR001570622], the 50% effective concentration (EC50) is over 53 µM.

`CN(C)c1ccc(C(N=O)c2ccccc2)cc1` (stereo not given) [[4-(dimethylamino)phenyl]-phenylmethanone oxime] showed an EC50 of over 53 µM. `N#CC(C(=O)COC(=O)c1ccccc1O)c1nc2ccccc2s1` (stereo not given) [[(3Z)-3-(3H-1,3-benzothiazol-2-ylidene)-3-cyano-2-oxidanylidene-propyl] 2-oxidanylbenzoate] displayed a concentration giving a half-maximal response (EC50) of over 53 µM.

Consider `O=NC(N1CCOCC1)P(=O)(N1CCOCC1)N1CCOCC1` (stereo not given) [bis(4-morpholinyl)phosphoryl-(4-morpholinyl)methanone oxime], for which the EC50 was over 53 µM. `CCOC(=O)C1CCCN(c2cc(O)n(-c3ccccc3)c2O)C1` (stereo not given) [ethyl 1-(2,5-dioxo-1-phenylpyrrolidin-3-yl)piperidine-3-carboxylate] showed an EC50 of over 53 µM. The same measure for `CCOC(=O)c1c(NC=C2C(=O)NC(=S)NC2=O)sc2c1CCC2` [ethyl 2-[(E)-(4,6-dioxo-2-sulfanylidene-1,3-diazinan-5-yl)methylideneamino]-5,6-dihydro-4H-cyclopenta[b]thiophene-3-carboxylate]: over 53 µM. As for `COC(=O)C1=C(C)NC(=O)C1=CNc1ccc(C(C)C)cc1` [methyl (4E)-2-methyl-5-oxidanylidene-4-[[(4-propan-2-ylphenyl)amino]methylidene]-1H-pyrrole-3-carboxylate], the EC50 is over 53 µM.

In turn, `COC(=O)Cc1sc(=O)[nH]c1Nc1ccc(OC)cc1` [methyl {4-[(4-methoxyphenyl)imino]-2-oxo-1,3-thiazolidin-5-yl}acetate] returned an EC50 of over 53 µM.
